According to US11173145B2, “Compounds useful as inhibitors of indoleamine 2,3-dioxygenase and/or tryptophan dioxygenase” (Board of Regents, The University of Texas System, priority 2017, dated 2021):

Target: T1, IDO1 (Homo sapiens, UniProt P14902)
T1 construct: endogenous in cells; host or cells: HeLa cells (ATCC), IFNgamma-induced
Experiment: IDO1 cell-based assay (HeLa cells, IFNgamma-induced, N-formylkynurenine/L-tryptophan by RFMS)
Conditions: 10 ng/mL IFNgamma, 24 hours
Procedure: HeLa cells were obtained from the American Type Culture Collection (ATCC) and maintained in DMEM media containing 10% FBS. Cells (7,000/well) were seeded onto a 384 well plate in 50 μL of media and incubated at 37° C., 5% CO2 overnight. Cell media was aspirated, fresh media containing 10 ng/mL IFNgamma was added, and cells were incubated in absence or presence of various concentrations of test compound (final 0.5% DMSO) for 24 hours. Aliquots of the cell conditioned media were removed from the cell plate, and mixed with an equal volume of 200 mM ZnSO4 to precipitate media containing proteins. Two volumes of acetonitrile were added, mixed, and samples were then centrifuged at 2250G for 20 minutes at 4° C. Aliquots of the supernatant were diluted 1:10 in 0.1% formic acid containing 3 μM of deuterated Tryptophan as an internal standard.
Samples were analyzed via RFMS to quantify N-Formyl Kynurenine (AUC) and L-tryptophan (AUC). A C18 cartridge was used with mobile phases of 0.1% Formic Acid and 80% ACN/0.1% Formic Acid under isocratic conditions. Dose-response curves were analyzed using IC50 regression curve fitting (GeneData Screener). […] Cell viability was also assessed using the Cell Titer Glo Kit (Promega) following manufacturer recommendation.

T1 sequence (P14902 whole entry): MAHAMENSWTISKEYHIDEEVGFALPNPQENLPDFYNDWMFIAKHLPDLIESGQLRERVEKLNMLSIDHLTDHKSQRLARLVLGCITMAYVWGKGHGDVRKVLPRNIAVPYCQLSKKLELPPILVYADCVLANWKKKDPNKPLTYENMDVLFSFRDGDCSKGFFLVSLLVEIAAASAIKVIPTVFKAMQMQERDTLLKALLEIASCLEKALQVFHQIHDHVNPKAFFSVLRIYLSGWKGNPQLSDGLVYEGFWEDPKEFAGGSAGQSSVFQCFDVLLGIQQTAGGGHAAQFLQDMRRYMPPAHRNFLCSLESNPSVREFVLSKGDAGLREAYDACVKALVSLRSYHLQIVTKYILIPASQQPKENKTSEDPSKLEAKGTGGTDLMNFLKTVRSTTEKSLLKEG

IC50 | SMILES
< 200 nM | CCC(NC(=O)c1ccc(Cl)cc1)[C@H]1[C@@H]2C[C@@H](Oc3cnc4ccccc4c3)C[C@@H]21 (stereo partly drawn) [Compound 49, 4-chloro-N-(1-((1R,3s,5S,6r)-3-(quinolin-3-yloxy)bicyclo[3.1.0]hexan-6-yl)propyl)benzamide]
> 5000 nM | O=C(Cc1ccc(Cl)cc1)NC1C2CN(c3ccnc4ccc(F)cc34)CC21 (stereo not shown) [Compound 109, 2-(4-Chlorophenyl)-N-(3-(6-fluoroquinolin-4-yl)-3-azabicyclo[3.1.0]hexan-6-yl)acetamide]
< 200 nM | CCC(NC(=O)c1ccc(Cl)cc1)[C@H]1[C@@H]2C[C@H](Oc3ccc4nccc(Cl)c4c3)C[C@@H]21 (stereo partly drawn) [Compound 127, 4-chloro-N-(1-((1R,3r,5S,6r)-3-((4-chloroquinolin-6-yl)oxy)bicyclo[3.1.0]hexan-6-yl)propyl)benzamide]
< 200 nM | CCC(NC(=O)c1ccc(Cl)cc1)[C@H]1[C@@H]2C[C@@H](Oc3ccc(F)nc3)C[C@@H]21 (stereo partly drawn) [Compound 18, 4-chloro-N-(1-((1R,3s,5S,6r)-3-((6-fluoropyridin-3-yl)oxy)bicyclo[3.1.0]hexan-6-yl)propyl)benzamide]
200 to 2000 nM | Cc1cccc(C(=O)NC[C@@H]2[C@H]3C[C@H](n4cnc5cc(F)c(F)cc54)C[C@@H]23)c1 [Compound 323, N-(((1R,3s,5S,6r)-3-(5,6-difluoro-1H-benzo[d]imidazol-1-yl)bicyclo[3.1.0]hexan-6-yl)methyl)-3-methylbenzamide]
< 200 nM | CCC(NC(=O)c1ccc(Cl)cc1)[C@H]1[C@@H]2C[C@@H](n3cc4cc(F)ccc4n3)C[C@@H]21 (stereo partly drawn) [Compound 207, 4-chloro-N-(1-((1R,3s,5S,6r)-3-(5-fluoro-2H-indazol-2-yl)bicyclo[3.1.0]hexan-6-yl)propyl)benzamide]
< 200 nM | CCC(NC(=O)c1ccc(Cl)cc1)[C@H]1[C@@H]2C[C@@H](Oc3ccnc(C)c3F)C[C@@H]21 (stereo partly drawn) [Compound 93, 4-chloro-N-(1-((1R,3s,5S,6r)-3-((3-fluoro-2-methylpyridin-4-yl)oxy)bicyclo[3.1.0]hexan-6-yl)propyl)benzamide]
< 200 nM | CCC(NC(=O)c1ccc(Cl)cc1)[C@H]1[C@@H]2C[C@@H](Oc3c(Cl)ccnc3C)C[C@@H]21 (stereo partly drawn) [Compound 92, 4-chloro-N-(1-((1R,3s,5S,6r)-3-((4-chloro-2-methylpyridin-3-yl)oxy)bicyclo[3.1.0]hexan-6-yl)propyl)benzamide]
< 200 nM | C#Cc1ccc2ncnc(N[C@@H]3C[C@@H]4[C@H](C3)[C@H]4[C@@H](CC)NC(=O)c3ccc(Cl)cc3)c2c1 [Compound 337, 4-chloro-N-((R)-1-((1R,3S,5S,6r)-3-((6-ethynylquinazolin-4-yl)amino)bicyclo[3.1.0]hexan-6-yl)propyl)benzamide]
200 to 2000 nM | CC[C@@H](NC(=O)N1CC(F)(F)C1)[C@H]1[C@@H]2C[C@@H](n3cnc4cc(F)c(F)cc43)C[C@@H]21 [Compound 354, N-((R)-1-((1R,3S,5S,6r)-3-(5,6-difluoro-1H-benzo[d]imidazol-1-yl)bicyclo[3.1.0]hexan-6-yl)propyl)-3,3-difluoroazetidine-1-carboxamide]
> 5000 nM | CCC(NC(=O)c1ccc(Cl)cc1)[C@H]1[C@@H]2C[C@@H](NC(=O)N3CCNCC3)C[C@@H]21 (stereo partly drawn) [Compound 156, N-((1R,3s,5S,6r)-6-(1-(4-chlorobenzamido)propyl)bicyclo[3.1.0]hexan-3-yl)piperazine-1-carboxamide]
< 200 nM | CCOC(=O)CC(NC(=O)c1ccc(Cl)cc1)[C@H]1[C@@H]2C[C@@H](Oc3cnnc4ccccc34)C[C@@H]21 (stereo partly drawn) [Compound 84, ethyl 3-(4-chlorobenzamido)-3-((1R,3s,5S,6r)-3-(cinnolin-4-yloxy)bicyclo[3.1.0]hexan-6-yl)propanoate]
200 to 2000 nM | O=C(NC[C@@H]1[C@H]2CN(c3ncnc4ccc(F)cc34)C[C@@H]12)c1ccc(Cl)cc1 [Compound 280, 4-chloro-N-(((1R,5S,6s)-3-(6-fluoroquinazolin-4-yl)-3-azabicyclo[3.1.0]hexan-6-yl)methyl)benzamide]
